# Measured values as given in patent publication US5610174A, “Use of α1A -selective adrenoceptor agonists for the treatment of urinary incontinence” (priority 1995, dated 1997).
# Read-outs that look alike come from different tables or passages of the source.
# Tests used:
# human 5-HT7 receptor = biological target: T1, human 5-HT7 receptor (Homo sapiens, UniProt P34969); assay: Radioligand binding at human 5-HT7
# T1 construct: expressed in transfected cells; host or cells: LM(tk-) clonal cell line, designated L-5-HT-4B, ATCC CRL 11166 (cell lysates)
# T1 sequence (P34969 1-445 isoform P34969-2): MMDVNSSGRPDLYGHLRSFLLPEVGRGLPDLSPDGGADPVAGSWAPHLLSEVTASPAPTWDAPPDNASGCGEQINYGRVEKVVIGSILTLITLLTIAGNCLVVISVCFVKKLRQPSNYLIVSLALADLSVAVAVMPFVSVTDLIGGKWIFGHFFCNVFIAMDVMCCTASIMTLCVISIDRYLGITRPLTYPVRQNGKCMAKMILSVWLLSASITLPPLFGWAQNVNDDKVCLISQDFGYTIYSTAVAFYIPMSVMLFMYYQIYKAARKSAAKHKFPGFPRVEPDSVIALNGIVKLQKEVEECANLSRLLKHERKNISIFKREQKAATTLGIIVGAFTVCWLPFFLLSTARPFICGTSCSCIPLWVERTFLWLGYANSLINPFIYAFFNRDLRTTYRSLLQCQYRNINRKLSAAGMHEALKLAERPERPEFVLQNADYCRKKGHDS
# Description: Human Serotonin Receptors
# 5-HT1Dα, 5-HT1Dβ, 5-HT1E, 5-HT1F, and 5-HT7 Receptors: The cell lysates of LM(tk-) clonal cell line stably transfected with the genes encoding each of these 5-HT receptor-subtypes were prepared as described above. The cell line for the 5-HT1Dαreceptor, designated as Ltk-8-30-84, was deposited on Apr. […] The cell for the 5-HT1Dβ receptor, designated as Ltk-11, was deposited on Apr. […] The cell line for the 5-HT1E receptor, designated 5-HT1E -7, was deposited on Nov. […] The cell line for the 5-HT1F receptor, designated L-5-HT1F, was deposited on Dec. […] The cell line for the 5-HT7 receptor, designated as L-5-HT-4B, was deposited on Oct. […] These preparations were suspended in 50 mM Tris-HCl buffer (pH 7.4 at 37° C.) containing 10 mM MgCl2, 0.2 mM EDTA, 10 μM pargyline, and 0.1% ascorbate. […] Nonspecific binding was determined in the presence of 10 μM serotonin. The bound radioligand was separated by filtration through GF/B filters using a cell harvester.
# [1] = biological target: T2, dog BN, female (α1-adrenoceptor) (Canis lupus, UniProt A0A8I3NK63); assay: Contractile study in isolated female dog bladder neck; settings: for pEC50 Bladder Neck: agonist contraction; for pEC50 Bladder Neck / sensitivity of the contraction to prazosin, bladder neck: female dog bladder neck
# T2 sequence (A0A8I3NK63 1-466): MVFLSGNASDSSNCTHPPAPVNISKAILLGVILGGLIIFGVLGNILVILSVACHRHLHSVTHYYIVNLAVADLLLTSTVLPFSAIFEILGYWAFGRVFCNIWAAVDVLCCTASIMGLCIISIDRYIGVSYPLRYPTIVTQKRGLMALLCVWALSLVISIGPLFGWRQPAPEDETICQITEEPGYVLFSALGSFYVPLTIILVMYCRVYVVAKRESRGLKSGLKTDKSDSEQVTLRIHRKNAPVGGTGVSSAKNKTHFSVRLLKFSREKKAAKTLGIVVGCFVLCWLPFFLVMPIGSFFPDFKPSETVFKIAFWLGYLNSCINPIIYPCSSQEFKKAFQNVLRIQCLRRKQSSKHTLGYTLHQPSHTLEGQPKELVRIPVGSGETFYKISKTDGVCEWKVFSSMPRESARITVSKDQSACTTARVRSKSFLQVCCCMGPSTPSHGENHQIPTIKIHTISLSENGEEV
# Text: In addition, similar studies were done using bladder neck tissue from female dogs. In order to identify the specific receptor subtype in each tissue, the pharmacological profile was compared to the profiles for these same drugs at the cloned human α1A, α1B, or α1C subtypes.
# Tissue samples from the proximal urethra of male humans and male and female rabbits, as well as tissue samples from both the proximal urethra and bladder neck of male and female dogs were cut into transverse strips (3×10 mm) and suspended under 0.5 g tension in Krebs' physiological buffer at 37° C. To determine agonist potency (pEC50 )and antagonist affinity constants (pKB), concentration-effect curves to the non-selective agonist phenylepherine were constructed in the absence and in the presence of increasing concentrations of the antagonist. Up to four sequential curves were constructed in each tissue. Antagonists were allowed to equilibrate for 1h before each concentration-effect curve, and the drugs were completely washed out in between successive curves. In each experiment, one tissue served as a "time control", in which no antagonist was added so that changes in tissue sensitivity could be assessed as a function of time. […] In instances in which a single concentration of antagonist was used, pKB values were determined by the equation: […], where CR is defined as the ratio of the agonist EC50 in the presence of the antagonist to that in the absence of the antagonist.
# [2] = biological target: T3, human dopamine D5 receptor (Homo sapiens, UniProt P21918); assay: Radioligand binding at human dopamine D5
# T3 construct: expressed in transfected cells
# T3 sequence (P21918 whole entry): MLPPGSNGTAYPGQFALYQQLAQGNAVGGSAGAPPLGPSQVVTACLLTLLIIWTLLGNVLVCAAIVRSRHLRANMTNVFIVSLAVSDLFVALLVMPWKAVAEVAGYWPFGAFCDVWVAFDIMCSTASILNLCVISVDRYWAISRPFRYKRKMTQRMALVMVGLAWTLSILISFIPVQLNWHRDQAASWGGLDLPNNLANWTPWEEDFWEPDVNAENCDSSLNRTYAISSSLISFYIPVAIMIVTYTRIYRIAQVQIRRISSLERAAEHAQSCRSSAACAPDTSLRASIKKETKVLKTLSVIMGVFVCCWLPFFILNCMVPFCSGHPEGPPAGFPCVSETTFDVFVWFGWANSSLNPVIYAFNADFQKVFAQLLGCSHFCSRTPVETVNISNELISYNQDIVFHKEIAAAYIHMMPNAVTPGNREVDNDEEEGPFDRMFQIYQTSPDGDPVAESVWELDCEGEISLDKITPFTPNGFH
# Description: (§1) Other Dopamine receptors were prepared by known methods. (D1 : Dearry et al., Nature, 347, 72, (1990), deposited with the European Molecular Biological Laboratory (EMBL) Genbank as X55760; D3 : Sokoloff, P. et al., Nature, 347, 146 (1990), deposited with the European Molecular Biological Laboratory (EMBL) Genbank as X53944; D5 : Sunahara, R. K., et al., Nature, 350, 614 (1991), deposited with EMBL Genbank as X58454-HU HD 5DR).
# [3] = biological target: human dopamine D3 receptor; assay: Radioligand binding at human dopamine D3
# Description: as §1
# human α2C adrenoceptor = biological target: T4, human α2C adrenoceptor (Homo sapiens, UniProt P18825); assay: Radioligand binding ([3H]rauwolscine) at cloned human α2C
# T4 construct: expressed in transfected cells; host or cells: LM(tk-)
# T4 sequence (P18825 1-462): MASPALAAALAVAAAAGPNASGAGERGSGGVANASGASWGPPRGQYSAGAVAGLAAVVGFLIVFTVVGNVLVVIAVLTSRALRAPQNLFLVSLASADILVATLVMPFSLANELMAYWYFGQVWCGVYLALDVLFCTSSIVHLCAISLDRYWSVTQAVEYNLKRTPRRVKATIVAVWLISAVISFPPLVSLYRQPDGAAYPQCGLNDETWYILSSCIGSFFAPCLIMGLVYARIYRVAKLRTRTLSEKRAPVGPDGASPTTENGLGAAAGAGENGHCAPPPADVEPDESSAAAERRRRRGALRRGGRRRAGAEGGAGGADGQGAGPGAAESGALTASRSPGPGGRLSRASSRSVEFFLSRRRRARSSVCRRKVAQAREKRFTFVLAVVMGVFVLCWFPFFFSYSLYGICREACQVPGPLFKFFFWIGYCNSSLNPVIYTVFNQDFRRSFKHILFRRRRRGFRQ
# Description: To determine the affinity of compounds at the α2 receptors, LM(tk-) cell lines stably transfected with the genes encoding the α2A, α2B, and α2C receptors were used. Cell lysates were prepared as described above (see Radioligand Binding Assays), and suspended in 25 mM glycylglycine buffer (pH 7.6 at room temperature). Equilibrium competition binding assays were performed using [^3 H] rauwolscine (0.5 nM), and nonspecific binding was determined by incubation with 10 μM phentolamine. The bound radioligand was separated by filtration through GF/B filters using a cell harvester.
# [4] = Table 3, agonists, read-out: pKi α2C (converted)
structure (smiles),measurement,setting,value
CNCCc1ccc(O)c(NS(C)(=O)=O)c1 [SK&F 102652],pKi 5-HT7,human 5-HT7 receptor; [3H]serotonin,5.3
same,pEC50 Bladder Neck,[1],5.7
same,"sensitivity of the contraction to prazosin, bladder neck",[1],highly sensitive to prazosin
same,pKi D5,[2],4.8
same,pKi D3,[3],6.7
"COc1ccc(SC)c2c1C[C@@H]1[C@@H](C2)OCCN1C (relative stereo) [SDZ NVI-085, (±)-trans-4-Methyl-6-methoxy-9-thiomethoxy-3,4,4a, 5,10,10a-hexahydro-2H-naphtho[2,3-b][1,4]oxazine]",Ki,human 5-HT7 receptor,0.1 µM
same,Ki,human α2C adrenoceptor; [4],0.794 µM
same,Ki,[2]; read-out: pKi D5 (converted),20 µM
same,pKi D3,[3],6.0
COc1ccccc1N1CCN(CCCNc2c(C)c(=O)n(C)c(=O)n2C)CC1 [Compound 5-MU],pKB Dog BN Female,[1]; versus phenylephrine-induced contraction,8.8
"COc1ccc(OC)c(C(O)CN)c1 (racemic) [ST-1059, (±)-2-Amino-1-(2, 5 dimethoxyphenyl) ethanol]",Ki,human α2C adrenoceptor,3.98 µM
"CS(=O)(=O)Nc1c(O)ccc2c1CCCC2C1=NCCN1 (racemic) [Compound A-61603, (±)-N-[5-(4,5-Dihydro-1H-imidazol-2-yl)-2-hydroxy-5,6,7,8-tetra-hydronaphthalen-1-yl]methanesulfonamide]",Ki,"human 5-HT7 receptor; [3H]serotonin, read-out: pKi 5-HT7 (converted)",5.01 µM
same,Ki,human α2C adrenoceptor; [4],0.631 µM
same,pEC50 Bladder Neck,[1],6.8
same,"sensitivity of the contraction to prazosin, bladder neck",[1],highly sensitive to prazosin
same,Ki,[2],15.8 µM
same,pKi D3,[3],5.8
CN[C@@H](C)[C@H](O)c1ccccc1 [(-)-ephedrine],Ki,human α2C adrenoceptor,7.94 µM
C[C@H](N)[C@H](O)c1ccccc1 [(-)-norephedrine],Ki,human α2C adrenoceptor,3.16 µM
